Data: EP3212201B1, “NUCLEOSIDE KINASE INHIBITORS” (BCI Pharma, priority 2014, dated 2016)

How the values were obtained:
Assay in all cases: FRET-based coupled-enzyme protein kinase inhibition assay
Type in all cases: biochemical
Settings in all cases: compound at 10 µM, 1% DMSO
[1] = molecular target: T1, CHEK1 (CHK1) (Homo sapiens, UniProt O14757)
T1 sequence (O14757 1-476): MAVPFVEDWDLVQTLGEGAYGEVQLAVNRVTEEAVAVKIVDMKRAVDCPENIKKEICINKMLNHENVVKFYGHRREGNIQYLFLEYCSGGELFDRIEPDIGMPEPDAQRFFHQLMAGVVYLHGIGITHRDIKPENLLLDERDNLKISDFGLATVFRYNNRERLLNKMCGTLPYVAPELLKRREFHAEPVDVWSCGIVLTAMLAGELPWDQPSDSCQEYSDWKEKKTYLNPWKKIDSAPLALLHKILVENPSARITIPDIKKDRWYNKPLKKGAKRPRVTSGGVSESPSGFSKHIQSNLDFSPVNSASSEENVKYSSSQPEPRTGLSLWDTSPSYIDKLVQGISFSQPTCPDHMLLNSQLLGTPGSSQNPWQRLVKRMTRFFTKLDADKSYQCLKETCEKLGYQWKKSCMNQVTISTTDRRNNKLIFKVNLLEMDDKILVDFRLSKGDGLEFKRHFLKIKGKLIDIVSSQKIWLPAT
In short: (§1)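 Inhibition was quantified ratiometrically, as coumarin over fluorescein emission following 400 nm excitation, on a doubly labeled peptide whose cleavage by development reagent requires it to remain unphosphorylated. Kinase reactions ran 60 min at room temperature with ATP at apparent Km.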

[2] = molecular target: GSK3B (GSK3 beta) (Homo sapiens, UniProt P49841)
Chain of GSK3B (GSK3 beta) (P49841 whole entry, species assumed): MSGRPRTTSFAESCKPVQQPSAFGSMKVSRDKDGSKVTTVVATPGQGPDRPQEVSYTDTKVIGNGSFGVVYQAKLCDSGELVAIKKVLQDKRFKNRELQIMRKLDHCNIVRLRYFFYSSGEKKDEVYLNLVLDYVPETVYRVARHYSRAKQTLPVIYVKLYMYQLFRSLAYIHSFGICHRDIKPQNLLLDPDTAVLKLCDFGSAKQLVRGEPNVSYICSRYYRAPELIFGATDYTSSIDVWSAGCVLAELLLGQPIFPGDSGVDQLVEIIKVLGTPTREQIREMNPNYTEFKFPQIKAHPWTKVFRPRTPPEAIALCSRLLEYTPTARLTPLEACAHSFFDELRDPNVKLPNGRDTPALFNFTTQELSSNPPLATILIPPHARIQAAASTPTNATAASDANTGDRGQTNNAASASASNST
In short: as §1

[3] = molecular target: T2, IKBKB (IKK beta) (Homo sapiens, UniProt O14920)
T2 sequence (O14920 1-756): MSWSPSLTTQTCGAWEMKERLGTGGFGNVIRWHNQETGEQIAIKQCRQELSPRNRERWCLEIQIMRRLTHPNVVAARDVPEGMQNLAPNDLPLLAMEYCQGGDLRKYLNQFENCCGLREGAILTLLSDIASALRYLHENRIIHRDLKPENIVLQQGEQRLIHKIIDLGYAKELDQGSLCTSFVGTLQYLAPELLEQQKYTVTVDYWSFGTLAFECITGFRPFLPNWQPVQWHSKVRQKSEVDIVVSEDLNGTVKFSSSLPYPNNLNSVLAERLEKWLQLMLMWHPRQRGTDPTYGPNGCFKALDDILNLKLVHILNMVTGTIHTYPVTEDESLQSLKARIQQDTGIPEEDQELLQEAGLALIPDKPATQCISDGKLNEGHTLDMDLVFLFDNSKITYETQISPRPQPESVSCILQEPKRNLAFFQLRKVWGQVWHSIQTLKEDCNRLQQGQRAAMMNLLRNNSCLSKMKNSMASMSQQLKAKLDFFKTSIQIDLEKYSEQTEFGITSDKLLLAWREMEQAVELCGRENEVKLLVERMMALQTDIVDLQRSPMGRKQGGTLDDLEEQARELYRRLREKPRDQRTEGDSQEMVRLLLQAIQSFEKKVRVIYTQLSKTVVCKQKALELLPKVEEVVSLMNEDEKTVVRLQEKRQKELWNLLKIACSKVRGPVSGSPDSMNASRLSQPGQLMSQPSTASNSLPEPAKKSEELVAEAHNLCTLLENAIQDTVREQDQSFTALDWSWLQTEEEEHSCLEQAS
In short: as §1

[4] = molecular target: KDR (VEGFR2) (Homo sapiens, UniProt P35968)
Chain of KDR (VEGFR2) (P35968 20-1356, species assumed): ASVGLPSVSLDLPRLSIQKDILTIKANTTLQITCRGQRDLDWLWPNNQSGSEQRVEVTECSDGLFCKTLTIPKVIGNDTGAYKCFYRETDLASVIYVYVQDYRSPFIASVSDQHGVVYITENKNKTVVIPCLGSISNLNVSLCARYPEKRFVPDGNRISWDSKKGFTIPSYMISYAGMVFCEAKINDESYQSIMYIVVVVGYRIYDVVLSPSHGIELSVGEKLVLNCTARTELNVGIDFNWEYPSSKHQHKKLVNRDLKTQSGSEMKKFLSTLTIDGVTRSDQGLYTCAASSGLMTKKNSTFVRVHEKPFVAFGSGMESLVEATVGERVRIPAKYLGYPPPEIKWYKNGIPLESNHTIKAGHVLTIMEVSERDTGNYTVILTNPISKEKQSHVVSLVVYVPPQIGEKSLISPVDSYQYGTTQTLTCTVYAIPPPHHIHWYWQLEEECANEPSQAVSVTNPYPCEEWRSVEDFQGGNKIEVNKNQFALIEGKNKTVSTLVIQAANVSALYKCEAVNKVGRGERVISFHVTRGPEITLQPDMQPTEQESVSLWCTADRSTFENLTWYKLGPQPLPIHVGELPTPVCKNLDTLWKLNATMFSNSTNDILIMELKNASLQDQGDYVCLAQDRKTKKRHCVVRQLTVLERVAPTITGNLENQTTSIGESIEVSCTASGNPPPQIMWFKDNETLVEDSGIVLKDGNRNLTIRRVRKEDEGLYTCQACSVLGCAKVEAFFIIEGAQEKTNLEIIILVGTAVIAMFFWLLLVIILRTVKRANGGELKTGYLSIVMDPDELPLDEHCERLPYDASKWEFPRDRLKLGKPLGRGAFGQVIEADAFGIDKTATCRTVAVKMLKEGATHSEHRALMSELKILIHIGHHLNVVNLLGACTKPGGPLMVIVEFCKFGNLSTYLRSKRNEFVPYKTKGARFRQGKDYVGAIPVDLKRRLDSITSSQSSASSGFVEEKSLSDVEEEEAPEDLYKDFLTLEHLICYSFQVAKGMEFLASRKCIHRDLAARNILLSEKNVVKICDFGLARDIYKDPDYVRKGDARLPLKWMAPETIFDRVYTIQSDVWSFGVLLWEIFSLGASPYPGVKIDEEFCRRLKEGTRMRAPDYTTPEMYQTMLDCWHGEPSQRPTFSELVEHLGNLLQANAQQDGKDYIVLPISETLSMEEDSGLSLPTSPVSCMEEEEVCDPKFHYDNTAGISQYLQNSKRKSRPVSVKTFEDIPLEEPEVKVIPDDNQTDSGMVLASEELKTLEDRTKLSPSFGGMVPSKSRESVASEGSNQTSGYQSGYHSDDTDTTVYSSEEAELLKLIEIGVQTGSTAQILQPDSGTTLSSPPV
In short: as §1

[5] = molecular target: MAP4K4 (HGK) (Homo sapiens, UniProt O95819)
Chain of MAP4K4 (HGK) (O95819 whole entry, species assumed): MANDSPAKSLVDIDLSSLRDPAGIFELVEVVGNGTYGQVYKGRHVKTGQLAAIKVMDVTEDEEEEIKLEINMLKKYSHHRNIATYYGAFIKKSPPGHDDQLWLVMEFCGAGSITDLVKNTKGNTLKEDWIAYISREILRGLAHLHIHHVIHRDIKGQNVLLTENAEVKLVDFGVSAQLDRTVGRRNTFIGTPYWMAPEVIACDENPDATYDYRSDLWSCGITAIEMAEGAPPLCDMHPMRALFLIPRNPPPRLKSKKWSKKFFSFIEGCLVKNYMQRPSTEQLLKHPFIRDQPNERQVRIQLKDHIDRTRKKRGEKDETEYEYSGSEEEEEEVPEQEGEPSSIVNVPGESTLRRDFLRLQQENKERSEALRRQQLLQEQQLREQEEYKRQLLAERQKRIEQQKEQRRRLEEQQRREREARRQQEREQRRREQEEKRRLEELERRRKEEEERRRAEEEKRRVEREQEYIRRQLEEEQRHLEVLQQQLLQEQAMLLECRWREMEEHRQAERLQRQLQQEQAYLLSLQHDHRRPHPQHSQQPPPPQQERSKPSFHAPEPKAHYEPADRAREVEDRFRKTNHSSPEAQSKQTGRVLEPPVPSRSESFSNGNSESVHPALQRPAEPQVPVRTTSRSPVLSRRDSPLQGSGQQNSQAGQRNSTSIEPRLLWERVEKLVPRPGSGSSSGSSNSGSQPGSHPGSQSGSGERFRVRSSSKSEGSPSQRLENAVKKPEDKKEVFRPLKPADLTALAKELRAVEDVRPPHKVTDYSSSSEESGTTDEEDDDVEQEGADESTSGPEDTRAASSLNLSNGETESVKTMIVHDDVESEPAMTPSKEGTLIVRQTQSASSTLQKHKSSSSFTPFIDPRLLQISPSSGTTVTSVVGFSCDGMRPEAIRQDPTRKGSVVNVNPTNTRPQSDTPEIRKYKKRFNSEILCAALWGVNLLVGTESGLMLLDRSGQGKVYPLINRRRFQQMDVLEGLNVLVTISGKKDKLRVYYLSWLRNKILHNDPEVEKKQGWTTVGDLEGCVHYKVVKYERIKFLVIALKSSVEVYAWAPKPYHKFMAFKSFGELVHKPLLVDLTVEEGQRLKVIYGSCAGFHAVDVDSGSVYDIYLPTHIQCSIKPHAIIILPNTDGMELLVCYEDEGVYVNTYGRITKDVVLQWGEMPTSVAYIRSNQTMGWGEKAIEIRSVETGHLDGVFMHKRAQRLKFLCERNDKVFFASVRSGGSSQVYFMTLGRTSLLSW
In short: as §1

[6] = molecular target: ROCK1 (Homo sapiens, UniProt Q13464)
Chain of ROCK1 (Q13464 whole entry, species assumed): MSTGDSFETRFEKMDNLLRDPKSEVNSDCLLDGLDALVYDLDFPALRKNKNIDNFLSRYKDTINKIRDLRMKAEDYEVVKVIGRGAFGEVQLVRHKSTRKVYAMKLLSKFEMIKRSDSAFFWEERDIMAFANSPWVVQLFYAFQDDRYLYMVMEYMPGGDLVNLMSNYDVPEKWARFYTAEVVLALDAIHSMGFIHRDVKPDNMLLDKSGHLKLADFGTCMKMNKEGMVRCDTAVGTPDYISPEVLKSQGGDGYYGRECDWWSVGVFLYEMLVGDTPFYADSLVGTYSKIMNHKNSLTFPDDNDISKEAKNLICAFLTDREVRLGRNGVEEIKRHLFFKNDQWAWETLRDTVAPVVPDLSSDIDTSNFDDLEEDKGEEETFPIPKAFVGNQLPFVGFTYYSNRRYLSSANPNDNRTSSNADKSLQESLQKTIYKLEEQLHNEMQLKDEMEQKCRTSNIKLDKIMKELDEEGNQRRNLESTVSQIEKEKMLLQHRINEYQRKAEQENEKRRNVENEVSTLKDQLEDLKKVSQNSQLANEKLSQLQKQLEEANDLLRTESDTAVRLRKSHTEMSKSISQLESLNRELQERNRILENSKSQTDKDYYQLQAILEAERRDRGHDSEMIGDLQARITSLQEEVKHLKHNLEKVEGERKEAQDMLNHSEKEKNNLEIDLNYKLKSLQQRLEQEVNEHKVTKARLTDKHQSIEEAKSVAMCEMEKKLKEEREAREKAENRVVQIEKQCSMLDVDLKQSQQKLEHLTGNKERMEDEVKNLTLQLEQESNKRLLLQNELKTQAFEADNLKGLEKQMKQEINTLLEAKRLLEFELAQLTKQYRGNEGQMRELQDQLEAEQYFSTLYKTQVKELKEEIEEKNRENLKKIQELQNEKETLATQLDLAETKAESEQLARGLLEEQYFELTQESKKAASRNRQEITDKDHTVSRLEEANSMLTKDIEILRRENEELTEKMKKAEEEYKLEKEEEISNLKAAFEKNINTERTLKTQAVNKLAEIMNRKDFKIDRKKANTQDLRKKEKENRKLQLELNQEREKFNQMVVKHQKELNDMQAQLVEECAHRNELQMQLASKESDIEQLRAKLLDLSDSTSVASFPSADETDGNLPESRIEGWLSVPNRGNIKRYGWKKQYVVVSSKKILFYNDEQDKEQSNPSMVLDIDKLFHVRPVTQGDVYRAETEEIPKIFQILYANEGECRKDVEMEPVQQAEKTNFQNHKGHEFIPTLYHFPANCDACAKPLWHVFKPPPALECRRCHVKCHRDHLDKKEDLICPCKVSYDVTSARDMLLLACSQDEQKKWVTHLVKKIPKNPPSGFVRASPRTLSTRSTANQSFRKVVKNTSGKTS
In short: as §1

SMILES	inhibition at 10 µM [1]	inhibition at 10 µM [2]	inhibition at 10 µM [3]	inhibition at 10 µM [4]	inhibition at 10 µM [5]	inhibition at 10 µM [6]
Nc1ncnc2c1ncn2[C@@H]1O[C@H](COC(=O)NCCCc2nc3ccccc3[nH]2)[C@@H](O)[C@H]1O [Compound C1]	-20%	7%	-10%	-6%	17%	18%
C[C@@H](NC(=O)OC[C@H]1O[C@@H](n2cnc3c(N)ncnc32)[C@H](O)[C@@H]1O)c1ccc(Cl)cc1 [Compound C4]	-11%	8%	-6%	4%	16%	-7%
Nc1ncnc2c1ncn2[C@@H]1O[C@H](COC(=O)NC[C@H](O)CO)[C@@H](O)[C@H]1O [Compound C8]	-8%	21%	-6%	0%	9%	2%
Nc1ncnc2c1ncn2[C@@H]1O[C@H](COC(=O)N2CCC[C@H]2CO)[C@@H](O)[C@H]1O [Compound C9]	14%	-6%	-8%	-3%	-2%	-10%
Nc1ncnc2c1ncn2[C@@H]1O[C@H](COC(=O)N[C@@H]2CCN(Cc3ccccc3)C2)[C@@H](O)[C@H]1O [Compound C10]	-3%	8%	-11%	8%	8%	-2%
Nc1ncnc2c1ncn2[C@@H]1O[C@H](COC(=O)N2CCN(Cc3ccccc3)CC2CO)[C@@H](O)[C@H]1O (stereo partly drawn) [Compound C13]	-8%	4%	-7%	-3%	-5%	-7%
CC(C)N1CCC(NC(=O)OC[C@H]2O[C@@H](n3cnc4c(N)ncnc43)[C@H](O)[C@@H]2O)CC1 [Compound C19]	-16%	6%	-6%	-10%	17%	2%
Nc1ncnc2c1ncn2[C@@H]1O[C@H](COC(=O)NCCN2CCCC2=O)[C@@H](O)[C@H]1O [Compound C22]	-14%	3%	-13%	-7%	17%	-7%
Nc1ncnc2c1ncn2[C@@H]1O[C@H](COC(=O)N2CCN(CCc3ccccc3)CC2)[C@@H](O)[C@H]1O [Compound C26]	20%	6%	-8%	-3%	17%	-12%
CN1CCN(CCNC(=O)OC[C@H]2O[C@@H](n3cnc4c(N)ncnc43)[C@H](O)[C@@H]2O)CC1 [Compound C46]	2%	5%	-3%	-7%	13%	-3%
Nc1ncnc2c1ncn2[C@@H]1O[C@H](COC(=O)N2CCC(Cc3ccc(F)cc3)C2)[C@@H](O)[C@H]1O (stereo partly drawn) [Compound C66]	18%	1%	-11%	3%	1%	-1%
N#CCCN1CCN(C(=O)OC[C@H]2O[C@@H](n3cnc4c(N)ncnc43)[C@H](O)[C@@H]2O)CC1 [Compound C70]	-11%	0%	-12%	-12%	-5%	-3%
CN(C)CCNC(=O)OC[C@H]1O[C@@H](n2cnc3c(N)ncnc32)[C@H](O)[C@@H]1O [Compound C85]	-9%	-5%	-10%	2%	-8%	-7%
Nc1ncnc2c1ncn2[C@@H]1O[C@H](COC(=O)N2CCN(C(=O)N3CCOCC3)CC2)[C@@H](O)[C@H]1O [Compound C89]	-20%	-2%	-10%	-6%	9%	-15%
CS(=O)(=O)N1CC2(CCN(C(=O)OC[C@H]3O[C@@H](n4cnc5c(N)ncnc54)[C@H](O)[C@@H]3O)CC2)c2ccccc21 [Compound C98]	-8%	-1%	-8%	8%	68%	-8%
Nc1ncnc2c1ncn2[C@@H]1O[C@H](COC(=O)N2CCS(=O)(=O)CC2)[C@@H](O)[C@H]1O [Compound C100]	-8%	5%	-9%	-3%	-6%	-6%
